Patent publication US20250026748A1, “N-(5-SUBSTITUTED-[(1,3,4-THIADIAZOLYL) OR (THIAZOLYL)])(SUBSTITUTED)CARBOXAMIDE COMPOUNDS AND USE THEREOF FOR INHIBITING HUMAN POLYMERASE THETA” (Repare Therapeutics Inc., priority 2021, published 2025)

Biological target: PolQ ATPase enzyme (1-894) (Homo sapiens (Human), UniProt O75417)
Test: Polθ ATPase enzymatic assay (0.5 nM enzyme concentration), ADP-Glo
Assay type: biochemical
Details: average IC50; 0.5 nM PolQ ATPase enzyme (1-894)
Procedure, shortened: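 Enzyme (0.5 nM) pre-incubated 15 min at rt with 10-point inhibitor series in 50 mM Tris pH 7.5, 10% glycerol, 5 mM DTT, 10 mM MgCl2, 0.1 mg/ml BSA; reaction started with 20 nM fork DNA and 100 μM ATP, run 180 min at rt. ADP-Glo luminescence; IC50 from 4-parameter variable-slope fit.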

PolQ ATPase enzyme (1-894), sequence (O75417 1-894): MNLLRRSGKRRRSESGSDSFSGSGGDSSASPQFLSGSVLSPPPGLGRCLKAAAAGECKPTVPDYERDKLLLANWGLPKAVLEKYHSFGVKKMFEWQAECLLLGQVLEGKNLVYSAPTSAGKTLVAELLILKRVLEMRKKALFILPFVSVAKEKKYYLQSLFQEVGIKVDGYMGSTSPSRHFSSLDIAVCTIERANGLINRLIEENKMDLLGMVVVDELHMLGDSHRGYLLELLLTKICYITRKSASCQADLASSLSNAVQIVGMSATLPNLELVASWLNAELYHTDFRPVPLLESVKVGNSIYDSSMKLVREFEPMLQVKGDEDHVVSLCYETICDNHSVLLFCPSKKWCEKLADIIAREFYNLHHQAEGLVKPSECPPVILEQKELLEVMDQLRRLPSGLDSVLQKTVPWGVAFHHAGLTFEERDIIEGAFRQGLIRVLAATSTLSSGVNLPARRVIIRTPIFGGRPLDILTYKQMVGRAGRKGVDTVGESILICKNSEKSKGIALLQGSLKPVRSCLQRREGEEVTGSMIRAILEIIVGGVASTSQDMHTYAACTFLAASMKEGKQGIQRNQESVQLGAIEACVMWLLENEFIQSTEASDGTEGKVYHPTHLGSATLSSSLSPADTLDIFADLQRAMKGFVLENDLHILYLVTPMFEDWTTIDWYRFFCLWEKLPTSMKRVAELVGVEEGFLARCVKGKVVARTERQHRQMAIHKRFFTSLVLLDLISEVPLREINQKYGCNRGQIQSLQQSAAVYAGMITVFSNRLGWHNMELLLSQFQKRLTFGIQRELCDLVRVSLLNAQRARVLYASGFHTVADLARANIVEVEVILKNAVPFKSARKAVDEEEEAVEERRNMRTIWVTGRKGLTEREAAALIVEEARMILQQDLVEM

## COc1cnc(Cl)cc1-c1cc(C2(C(=O)N(C)C)CC2)ccc1C(=O)Nc1nnc(C#CC2CC2)s1 [Compound 234]
  IC50: 34 nM

## C#C[C@H]1CC1c1nnc(NC(=O)c2cnc(-n3ccc(C)cc3=O)cc2-c2cc(C(F)F)ncc2OC)s1 (stereo partly drawn) [Compound 431]
  IC50: < 0.25 nM

## COc1cnc(C(F)F)cc1-c1cc(N2CCN(C(C)=O)CC2=O)ccc1C(=O)Nc1nnc(C#CC2CC2)s1 [Compound 137]
  IC50: 0.26 nM

## COc1cnc(C(F)F)cc1-c1cc(C)ncc1C(=O)Nc1nnc(C#CC2CC2)s1 [Compound 278]
  IC50: < 0.25 nM

## COc1cnc(Cl)nc1-c1cc(-c2nnc(C)o2)ccc1C(=O)Nc1nnc(C#CC2CC2)s1 [Compound 402]
  IC50: 0.88 nM

## COc1cnc(Cl)cc1-c1cc(CC(=O)N(C)C)ccc1C(=O)Nc1nnc(C#CC2CC2)s1 [Compound 35, 2-(2-chloro-5-methoxypyridin-4-yl)-N-(5-(cyclopropylethynyl)-1,3,4-thiadiazol-2-yl)-4-(2-(dimethylamino)-2-oxoethyl)benzamide]
  IC50: < 0.25 nM

## COc1cnc(C(F)F)cc1-c1cc(C(=O)N2CCOCC2)ccc1C(=O)Nc1nnc(C#CC2CC2)s1 [Compound 254]
  IC50: 1.7 nM

## COc1cnc(C(F)F)cc1-c1cc(-c2cncn2C)ncc1C(=O)Nc1nnc(C#CC2CC2)s1 [Compound 405]
  IC50: < 0.25 nM

## COc1cnc(C(F)F)cc1-c1cc(N(C)c2nnc(C)o2)ccc1C(=O)Nc1ncc(C#CC2CC2)s1 [Compound 119]
  IC50: 23 nM

## COc1cnc(C(F)F)cc1-c1cc(C#CC2CCOCC2)ncc1C(=O)Nc1nnc(C#Cc2cc(C)[nH]n2)s1 [Compound 378]
  IC50: < 0.25 nM

## COc1ccc(C(F)(F)F)cc1-c1cn(C)c(=O)cc1C(=O)Nc1nnc(C#CC2CC2)s1 [Compound 80]
  IC50: 2.1 nM

## COc1cnc(C(F)F)cc1-c1cc(N2CCN(C(=O)OC(C)(C)C)CC2=O)ccc1C(=O)Nc1nnc(C#CC2CC2)s1 [Compound 144]
  IC50: 0.26 nM

## COc1cnc(C(F)F)cc1-c1cc(N2CCN(C(=O)OC(C)C)CC2=O)ncc1C(=O)Nc1nnc(C#CC2CC2)s1 [Compound 382]
  IC50: < 0.25 nM

## COc1cnc(C(F)F)cc1-c1cc(C#CC2(OC)CCOCC2)ccc1C(=O)Nc1nnc(C#CC2CC2)s1 [Compound 246]
  IC50: 1.1 nM

## COc1cnc(C(F)F)cc1-c1cc(N2CCO[C@@H](C)C2=O)ncc1C(=O)Nc1nnc(C#CC2CC2)s1 [Compound 174]
  IC50: < 0.25 nM

## COc1cnc(C(F)F)cc1-c1cnccc1C(=O)Nc1nnc([C@@H]2C[C@H]2c2ccc(C#N)cc2)s1 [Compound 303]
  IC50: 1.1 nM

## Cn1cc(-c2cc(Cl)ncc2OC(F)F)c(C(=O)Nc2nnc(C#CC3CC3)s2)cc1=O [Compound 74]
  IC50: 0.73 nM

## Cc1cnn(-c2cc(-c3cc(C(F)F)ncc3Cl)c(C(=O)Nc3nnc(C#CC4CC4)s3)cn2)c(=O)c1 [Compound 470]
  IC50: 0.0492 nM

## Cc1nc(Cn2cc(-c3cc(C(F)(F)F)ccc3Cl)c(C(=O)Nc3nnc(C#CC4CC4)s3)cc2=O)cs1 [Compound 331]
  IC50: 24 nM

## COC(=O)N1CCN(c2cc(-c3cc(C(F)F)ncc3OC)c(C(=O)Nc3nnc(C#CC4CC4)s3)cn2)C(=O)C1 [Compound 358]
  IC50: < 0.25 nM

## COc1ccc(C(F)(F)F)cc1-c1cn(CC(N)=O)c(=O)cc1C(=O)Nc1nnc(C#Cc2cc(C)[nH]n2)s1 [Compound 94]
  IC50: < 0.25 nM

## COc1cnc(C(F)F)cc1-c1cc(N2CC(C)(C)CC2=O)ncc1C(=O)Nc1nnc(C#CC2CC2)s1 [Compound 380]
  IC50: 11 nM

## COc1cnc(C(F)F)cc1-c1cc(Nc2nnc(C)o2)ccc1C(=O)Nc1nnc(C#CC2CC2)s1 [Compound 152]
  IC50: 1.2 nM

## COc1cnc(C(F)F)cc1-c1cc(-n2ncc(C)cc2=O)ncc1C(=O)Nc1nnc(C#CC2CC2)s1 [Compound 435]
  IC50: < 0.25 nM

## COc1cnc(CF)cc1-c1cnccc1C(=O)Nc1nnc(C#CC2CC2)s1 [Compound 71]
  IC50: 1.8 nM

## COc1cnc(C(F)F)cc1-c1cc(-n2ccc3occc3c2=O)ncc1C(=O)Nc1nnc(C#CC2CC2)s1 [Compound 439]
  IC50: < 0.25 nM

## COc1cnc(Cl)cc1-c1cc(C#N)ccc1C(=O)Nc1nnc(C#CC2CC2)s1 [Compound 40]
  IC50: < 0.25 nM
